The source of these data is US12377083B2 (WUHAN LL SCIENCE AND TECHNOLOGY DEVELOPMENT CO., LTD., priority 2019, dated 2025).

What all share (assay type): cell-based
The test system of data set [1] is A2058 (human melanoma cells). The data set can be described thus: A2058 cell scratch (migration) assay with LPA. To be noted: 10 μM LPA, scratch area at 24 h. The protocol: The activity of the compounds disclosed herein at the cell level in vitro is evaluated by A2058 (human melanoma cells, Beina Bio, BNCC341099) cell scratch assay. The inhibitory activity of the compounds against LPAR1 can be reflected by inhibition of cell scratch healing.
After the cell confluence reached 80%, the cell culture plate was taken out and the original medium was discarded. Serum-free medium was then added, and the cells were starved overnight in an incubator (37° C., 5% CO2). The cell culture plate was then taken out, and cell scratches were made along the diameter of the wells using a 200 μL pipette tip. The cell culture plate was then added with 500 μL of serum-free medium and then shaken gently to wash away the residual cells on the scratched surface, and this was repeated twice. The medium was discarded and 500 μL of 1% FBS medium containing the compound was then added, and the mixture was incubated at 37° C. for 30 min. […] Olympus CKX53 was used to observe the scratches, and MShot image analysis system was used to take pictures and measure the scratch area at 0 h. The plate was incubated in the incubator under the conditions of 37° C. and 5% CO2. 24 h later, the scratches were observed again with Olympus CKX53, and MShot image analysis system was used to take pictures and measure the scratch area at 24 h. Cell migration inhibition rate was calculated according to the following formula: […]

A short description of data set [2]: In vitro cytotoxicity assay in HepG2 cells, CCK-8 method. Particulars: human. The protocol:
In vitro cytotoxicity assay for the compounds disclosed herein was performed in HepG2 cells using the CCK-8 method. HepG2 cells (Beina Bio) in the logarithmic growth phase were collected, the concentration of cell suspension was adjusted, and then the cells were plated on a 96-well cell culture plate at 50,000 cells/well. The cells were then incubated overnight in a cell incubator (5% CO2, 37° C.), and after 80-90% cell confluence was achieved, test compounds or vehicle (DMSO) at various concentration gradients were added after medium change. The resulting mixture was incubated in the cell incubator (5% CO2, 37° C.) for 48 h. After the treatment, the medium in the plate was discarded. The plate was washed twice with PBS, added with CCK-8 working solution (Beyotime) at 100 μL per well, and then incubated at 37° C. for 1.5 h away from the light. Absorbance at OD450 nm was measured for each well on a microplate reader, and CC50 value of each compound was analyzed and calculated.

Data set [3] concerns the target hLPAR1 (human lysophosphatidic acid receptor 1) (Homo sapiens, UniProt Q92633). The data set can be described thus: FLIPR assay of intracellular calcium increase induced by activation of hLPAR1 expressed in CHO-K1 cells. To be noted: CHO-K1 cells expressing hLPAR1, agonist oleoyl-L-α-lysophosphatidic acid 1 μM; read-out: LPAR1 IC50. On the procedure: The antagonist property of the compounds disclosed herein was determined using the FLIPR (fluorescence imaging plate reader) method, wherein the compounds are inhibitors for the intracellular calcium increase induced by activation of hLPAR1 (human lysophosphatidic acid receptor 1, accession No. NM_001401.4) expressed in CHO-K1 cells (Chinese hamster ovary cells K1, ATCC).
Cells at 250,000 cells/mL were seeded into a 96-well plate (25,000 cells/well) 18-24 h prior to the FLIPR experiment and then incubated overnight in a cell incubator. […] Each well was added with 75 μL of […] Fluo-4 AM fluorescent dye (Thermo, F14202) and then the cells were subjected to dye-loading incubation at 37° C. for 1.0 h. The 96-well plate was then washed once with buffer, added with a buffer containing a test compound or a vehicle at 50 μL per well and then incubated for 30 min at room temperature. […] An agonist (oleoyl-L-α-lysophosphatidic acid sodium salt (Sigma, L7260)) at a final concentration of 1 μM or a vehicle (ultrapure water) was then added at 50 μL/well, fluorescence values were measured for 2 min at 1-second intervals, and finally the output fluorescence counts were analyzed.

pIC50: −log10 of the molar value.

Chain of hLPAR1 (human lysophosphatidic acid receptor 1) (Q92633 whole entry): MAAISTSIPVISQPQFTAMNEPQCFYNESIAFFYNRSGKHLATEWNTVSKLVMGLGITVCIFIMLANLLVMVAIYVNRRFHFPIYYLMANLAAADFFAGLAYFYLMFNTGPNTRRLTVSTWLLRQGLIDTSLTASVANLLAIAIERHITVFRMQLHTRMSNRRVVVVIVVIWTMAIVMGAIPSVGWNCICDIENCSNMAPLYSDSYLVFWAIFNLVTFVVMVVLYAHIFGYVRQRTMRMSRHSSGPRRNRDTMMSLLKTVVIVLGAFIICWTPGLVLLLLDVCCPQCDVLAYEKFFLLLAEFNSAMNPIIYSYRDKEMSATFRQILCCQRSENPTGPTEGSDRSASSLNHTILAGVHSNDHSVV

With `CN(C(=O)OCc1ocnc1-c1ccc(O[C@H]2CCC[C@H](C(=O)O)C2)c(C(F)(F)F)n1)C1CCCC1` (racemic) [Compound 25], in data set [1], the “Cell migration inhibition rate (%)” value was “B (B: 30-50%)”. In addition, the cytotoxic concentration (CC50) at 48 h in data set [2] was above 200 µM. Also, in data set [3], the pIC50 is 5.00 to 6.52.
On to `Cc1nc(-c2ncn(C)c2COC(=O)N(C)C2CCCC2)ccc1O[C@H]1CCC[C@H](C(=O)O)C1` (racemic) [Compound 17, (+/−)-(1S,3S)-3-((6-(5-(((cyclopentyl(methyl)carbamoyl)oxy)methyl)-1-methyl-1H-imidazol-4-yl)-2-methylpyridin-3-yl)oxy)cyclohexane-1-carboxylic Acid], for which the “Cell migration inhibition rate (%)” value in data set [1] is on record as “C (C: 0-30%)”. In data set [2], this compound gave a CC50 at 48 h above 200 µM. For the same compound, the pIC50 in data set [3] was 6.52 to 7.30.
For `CN(Cc1ccccc1)C(=O)OCc1c(-c2ccc(O[C@H]3CCC[C@H](C(=O)O)C3)cc2)cnn1C` (racemic) [Compound 2, (+/−)-(1S,3S)-3-(4-(5-(((benzyl(methyl)carbamoyl)oxy)methyl)-1-methyl-1H-pyrazol-4-yl)phenoxy)cyclohexane-1-carboxylic Acid], in that order: “C (C: 0-30%)”, above 200 µM and 5.00 to 6.52.
As for `Cc1nc(-c2c(Cl)nn(C)c2COC(=O)N(C)C2CCCC2)ccc1O[C@H]1CCC[C@H](C(=O)O)C1` (racemic) [Compound 56, (+/−)-(1S,3S)-3-((6-(3-chloro-5-(((cyclopentyl(methyl)carbamoyl)oxy)methyl)-1-methyl-1H-pyrazol-4-yl)-2-methylpyridin-3-yl)oxy)cyclohexane-1-carboxylic Acid], the “Cell migration inhibition rate (%)” value in data set [1] is “A (A: 50-70%)”. In addition, the CC50 at 48 h in data set [2] was above 200 µM. Besides, in data set [3], the pIC50 is above 7.30.
For `CN(C(=O)OCc1c(-c2ccc(O[C@H]3CCC[C@H](C(=O)O)C3)c(F)c2)ncn1C)C1CCCC1` (racemic) [Compound 34, (+/−)-(1S,3S)-3-(4-(5-(((cyclopentyl(methyl)carbamoyl)oxy)methyl)-1-methyl-1H-imidazol-4-yl)-2-fluorophenoxy)cyclohexane-1-carboxylic Acid], the “Cell migration inhibition rate (%)” value in data set [1] is “B (B: 30-50%)”. For the same compound, in data set [2], the 50% cytotoxic concentration (CC50) at 48 h is above 200 µM. The negative logarithm of the IC50 (pIC50) in data set [3] was 6.52 to 7.30.
With `Cc1nc(-c2noc(C)c2COC(=O)N(C)C2CCCC2)ccc1O[C@H]1CCC[C@H](C(=O)O)C1` (racemic) [Compound 38], in data set [1], the “Cell migration inhibition rate (%)” value was “A (A: 50-70%)”. Further, in data set [2], the half-maximal cytotoxic concentration (CC50) at 48 h was above 200 µM. Also, the pIC50 in data set [3] is above 7.30.
Take `CN(C(=O)OCc1c(-c2ncc(O[C@H]3CCC[C@H](C(=O)O)C3)cn2)cnn1C)C1CCCC1` (racemic) [Compound 100, (+/−)-(1S,3S)-3-((2-(5-(((cyclopentyl(methyl)carbamoyl)oxy)methyl)-1-methyl-1H-pyrazol-4-yl)pyrimidin-5-yl)oxy)cyclohexane-1-carboxylic Acid]: the “Cell migration inhibition rate (%)” value in data set [1] is recorded as “B (B: 30-50%)”. The CC50 at 48 h in data set [2] is above 200 µM. Further, the pIC50 in data set [3] is 5.00 to 6.52.
On to `CN(C(=O)OCc1c(-c2ccc(O[C@H]3CCC[C@H](C(=O)O)C3)cc2)ncn1C)C1CCCC1` (racemic) [Compound 12, (+/−)-(1S,3S)-3-(4-(5-(((cyclopentyl(methyl)carbamoyl)oxy)methyl)-1-methyl-1H-imidazol-4-yl)phenoxy)cyclohexane-1-carboxylate], for which the “Cell migration inhibition rate (%)” value in data set [1] was “C (C: 0-30%)”. In data set [2], this compound yielded a CC50 at 48 h above 200 µM. Further, the pIC50 in data set [3] was 5.00 to 6.52.
As for `Cc1nc(-c2ccn(C)c2COC(=O)N(C)C2CCCC2)ccc1O[C@H]1CCC[C@H](C(=O)O)C1` (racemic) [Compound 55], in data set [1], the “Cell migration inhibition rate (%)” value was “A (A: 50-70%)”. The same compound had a CC50 at 48 h in data set [2] above 200 µM. The pIC50 in data set [3] was above 7.30.
For `CN(Cc1ccccc1)C(=O)OCc1nc2c(O[C@H]3CCC[C@H](C(=O)O)C3)cccc2s1` (racemic) [Compound 23, (+/−)-(1S,3S)-3-((2-(((benzyl(methyl)carbamoyl)oxy)methyl)benzo[d]thiazole-4-yl)oxy)cyclohexane-1-carboxylic Acid] the same measures were “C (C: 0-30%)”, above 200 µM and 5.00 to 6.52.
Consider `Cc1nc(COC(=O)N(C)C2CCCC2)c(-c2ccc(O[C@H]3CCC[C@H](C(=O)O)C3)cc2)s1` (racemic) [Compound 10, (+/−)-(1S,3S)-3-(4-(4-(((cyclopentyl(methyl)carbamoyl)oxy)methyl)-2-methylthiazol-5-yl)phenoxy)cyclohexane-1-carboxylic Acid], for which the “Cell migration inhibition rate (%)” value in data set [1] was “C (C: 0-30%)”. Also, the CC50 at 48 h in data set [2] was above 200 µM. In addition, the pIC50 in data set [3] was 5.00 to 6.52.
For the compound `Cc1nnc(-c2ccc(O[C@H]3CCC[C@H](C(=O)O)C3)c(C)n2)cc1COC(=O)N(C)C1CCCC1` (racemic) [Compound 49], the “Cell migration inhibition rate (%)” value in data set [1] is reported as “B (B: 30-50%)”. Moreover, the CC50 at 48 h in data set [2] was above 200 µM. Moreover, the pIC50 in data set [3] is above 7.30.
For the compound `CN(C(=O)OCc1nocc1-c1ccc(O[C@H]2CCC[C@H](C(=O)O)C2)cc1)C1CCCC1` (racemic) [Compound 9, (+/−)-(1S,3S)-3-(4-(3-(((cyclopentyl(methyl)carbamoyl)oxy)methyl)isoxazol-4-yl)phenoxy)cyclohexane-1-carboxylic Acid], the “Cell migration inhibition rate (%)” value in data set [1] is recorded as “C (C: 0-30%)”. The compound also showed a CC50 at 48 h in data set [2] above 200 µM. Further, the pIC50 in data set [3] is 5.00 to 6.52.
For `CN(C(=O)OCc1c(-c2ccc(O[C@H]3CCC[C@H](C(=O)O)C3)c(C(F)(F)F)n2)ncn1C)C1CCCC1` (racemic) [Compound 32] the same measures were “B (B: 30-50%)”, above 200 µM and 6.52 to 7.30.
For `Cc1nc(-c2nsc(C)c2COC(=O)N(C)C2CCCC2)ccc1O[C@H]1CCC[C@H](C(=O)O)C1` (racemic) [Compound 39], in that order: “B (B: 30-50%)”, above 200 µM and above 7.30.
Regarding `Cc1nc(-c2coc(C)c2COC(=O)N(C)C2CCCC2)ccc1O[C@H]1CCC[C@H](C(=O)O)C1` (racemic) [Compound 42], the “Cell migration inhibition rate (%)” value in data set [1] is reported as “A (A: 50-70%)”. The CC50 at 48 h in data set [2] is above 200 µM. In addition, the pIC50 in data set [3] is above 7.30.
Consider `Cc1nc(-c2csc(C)c2COC(=O)N(C)C2CCCC2)ccc1O[C@H]1CCC[C@H](C(=O)O)C1` (racemic) [Compound 43], for which the “Cell migration inhibition rate (%)” value in data set [1] is listed as “A (A: 50-70%)”. In data set [2], the CC50 at 48 h is above 200 µM. Besides, in data set [3], the pIC50 was above 7.30.
As for `Cc1nc(-c2c(F)nn(C)c2COC(=O)N(C)C2CCCC2)ccc1O[C@H]1CCC[C@H](C(=O)O)C1` [Compound 57], in data set [1], the “Cell migration inhibition rate (%)” value is “A (A: 50-70%)”. The CC50 at 48 h in data set [2] was above 200 µM. In addition, in data set [3], the pIC50 was above 7.30.
On to `CN(C(=O)OCc1ccccc1-c1ccc(O[C@H]2CCC[C@H](C(=O)O)C2)cc1)C1CCCC1` (racemic) [Compound 21, (+/−)-(1S,3S)-3-((2′-(((cyclopentyl(methyl)carbamoyl)oxy)methyl)-[1,1′-biphenyl]-4-yl)oxy)cyclohexane-1-carboxylate], for which the “Cell migration inhibition rate (%)” value in data set [1] was “C (C: 0-30%)”. In data set [2], this compound came in with a CC50 at 48 h above 200 µM. Moreover, in data set [3], the pIC50 was 5.00 to 6.52.
As to `Cc1c[nH]c(-c2ccc(O[C@H]3CCC[C@H](C(=O)O)C3)c(C)n2)c1COC(=O)N(C)C1CCCC1` (racemic) [Compound 44], the “Cell migration inhibition rate (%)” value in data set [1] was “B (B: 30-50%)”. The CC50 at 48 h in data set [2] is above 200 µM. The pIC50 in data set [3] was above 7.30.
For the compound `Cc1ccn(-c2ccc(O[C@H]3CCC[C@H](C(=O)O)C3)cc2)c1COC(=O)N(C)C1CCCC1` (racemic) [Compound 31], the “Cell migration inhibition rate (%)” value in data set [1] is recorded as “B (B: 30-50%)”. The CC50 at 48 h in data set [2] was above 200 µM. Further, the pIC50 in data set [3] is above 7.30.
